Laboratory results as given in patent publication US10301284B2, “Therapeutic inhibitory compounds” (LifeSci Pharmaceuticals, Inc., priority 2016, dated 2019).
Where two headings read alike, the source gives them in different places.

Tests used:
human Plasma Kallikrein [1] = molecular target: T1, human Plasma Kallikrein (Homo sapiens (Human), UniProt P03952); experiment: Human whole blood kallikrein inhibition (ellagic acid-activated human plasma, Z-FR-2-AMC substrate); assay type: biochemical
Experimental: The ability of the compounds disclosed herein to inhibit human plasma kallikrein activity was quantified according to the procedures below.
All dilutions were prepared in an assay buffer comprising 50 mM Tris-HCl pH 7.2, 150 mM NaCl, and 0.01% Triton X-100.
Human plasma was thawed on ice and centrifuged for 15 min at 4° C. to remove platelets. A 1 mM stock solution of ellagic acid was diluted to 8 μM and mixed with human plasma, after removing platelets, at a ratio of 1:0.8. The mixture of human plasma and ellagic acid was further diluted 32-fold in the assay buffer, to yield the final mixture for use in the inhibition assay.
A 22.5 μL volume of the final mixture of human plasma and ellagic acid was added to a 96-well microwell plate and the plate was incubated for 15 min at 37° C.
The test compound solution was prepared to provide final concentrations of 20 μM, 5 μM, 1.25 μM, 312.5 nM, 78.125 nM, 19.531 nM, 4.883 nM, 1.221 nM, 0.305 nM, and 0.076 nM. Each test compound concentration was tested in duplicates.
In addition to the inhibitor control and test wells, the 96 well assay plate included positive control wells which contain the mixture of human plasma and ellagic acid without test compounds, and background wells which contain neither the mixture of human plasma and ellagic acid nor the test compounds. The total volume of liquid in positive control and background wells was brought up to 35 μL using the assay buffer.
The assay plate containing test compounds mixed with human plasma and ellagic acid and appropriate controls was incubated at 37° C. for 5 min. A 10 mM stock solution of substrate Z-FR-2-AMC was diluted to 133.2 μM in the assay buffer, and 15 μL of the diluted substrate was added to each well, to yield a final substrate concentration of 40 μM in each well. The reagents were mixed by shaking the plate gently for 30 sec.
The enzyme reaction was quantified by immediate kinetic reading of the assay plate using excitation/emission wavelengths of 330 nm/440 nm respectively. Fluorescence intensity was recorded for 60 min, using a time interval of 43 sec.
The inhibition activity of the test compounds were evaluated using the IC50 values, calculated according to the dose-response curve of the test compounds, fitted using the “log(inhibitor)−response(variable slope)” equation in GraphPadPrism software (GraphPad Software, Inc.).
The percentage inhibition (EC50) was calculated using the following equation:
[formula] where, Mean(BG) is the average value of the fluorescence intensity of the background wells and Mean(PC) is the average value of the fluorescence intensity of the positive control wells.

human Plasma Kallikrein [2] = molecular target: T1, human Plasma Kallikrein; experiment: In vitro enzyme inhibition of human plasma kallikrein (Pro-Phe-Arg-AMC cleavage); assay type: biochemical; conditions: human plasma kallikrein, PFR-AMC substrate, 37° C.; read-out: hPK IC50
In short: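 Human plasma kallikrein preincubated 5 min at 37 °C with compound in 50 mM Tris-HCl pH 7.5, 150 mM NaCl, 0.01% Triton X-100. Reaction started with Pro-Phe-Arg-AMC, fluorescence read every 43 s for 1 h at 37 °C. IC50 from highest mean velocity over 20 reads (~15 min).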

[3] = Pharmacokinetic evaluation, oral exposure in rats; assay type: in vivo; conditions: male Sprague-Dawley rats, single oral dose 10 mg/kg via oral gavage, plasma
Experimental: Pharmacokinetic studies of select compounds were performed to assess the pharmacokinetic properties. Male Sprague-Dawley rats were administered a single oral dose of the test compound at 10 mg/kg (dose concentration: 2 mg/mL, dose volume: 5 ml/kg) via oral gavage. Blood samples were collected via jugular vein at pre-dose, post-dose 5 min, 15 min, 30 min, 1 h, 2 h, 4 h, 6 h, 8 h, 10 h and 24 h, and centrifuged (8000 rpm for 6 minutes at 2-8° C.). The resulting plasma fractions were analyzed by LC/MS/MS to determine the concentration of the test compound.

[4] = human plasma activated with ellagic acid, Z-FR-2-AMC 40 μM, 37° C., read-out: HWB EC50

T1 sequence (P03952 391-638 limits assumed): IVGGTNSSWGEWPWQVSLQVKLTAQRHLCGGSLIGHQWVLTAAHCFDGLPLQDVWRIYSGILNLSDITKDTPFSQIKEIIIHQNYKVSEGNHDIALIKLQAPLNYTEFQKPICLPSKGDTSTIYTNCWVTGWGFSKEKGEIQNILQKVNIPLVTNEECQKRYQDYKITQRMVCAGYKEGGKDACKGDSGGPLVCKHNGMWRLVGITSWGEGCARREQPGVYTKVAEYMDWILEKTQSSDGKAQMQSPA
T1 sequence (P03952 20-390 partner limits assumed): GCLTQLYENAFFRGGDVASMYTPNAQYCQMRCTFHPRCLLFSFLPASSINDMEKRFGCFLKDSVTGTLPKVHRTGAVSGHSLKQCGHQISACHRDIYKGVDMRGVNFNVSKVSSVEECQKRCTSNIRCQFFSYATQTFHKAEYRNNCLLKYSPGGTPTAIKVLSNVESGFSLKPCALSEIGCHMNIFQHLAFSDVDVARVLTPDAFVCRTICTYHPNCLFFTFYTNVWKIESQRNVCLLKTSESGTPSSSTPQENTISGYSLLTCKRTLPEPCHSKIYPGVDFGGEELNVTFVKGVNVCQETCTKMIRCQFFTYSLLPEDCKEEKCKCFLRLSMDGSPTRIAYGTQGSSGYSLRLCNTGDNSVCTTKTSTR

| SMILES | EC50 (human Plasma Kallikrein [1]; [4]) [nM] | IC50 (human Plasma Kallikrein [2]) [nM] | AUC ([3]; rat, read-out: AUC) [ng·h/mL] | EC50 (human Plasma Kallikrein [1]) [nM] | AUC [3] |
| --- | --- | --- | --- | --- | --- |
| Cc1cc(N)nc(C)c1CNC(=O)c1cn(Cc2ccc3ncc(Cl)cc3c2)nn1 [Example 10, N-((6-amino-2,4-dimethylpyridin-3-yl)methyl)-1-((3-chloroquinolin-6-yl)methyl)-1H-1,2,3-triazole-4-carboxamide] | < 100 | < 100 | 1000 to 10000 |  |  |
| Cc1cc(N)nc(C)c1CNC(=O)c1cn(Cc2ccc3ncc(Cl)cc3c2)c2ncccc12 [Example 12, N-((6-amino-2,4-dimethylpyridin-3-yl)methyl)-1-((3-chloroquinolin-6-yl)methyl)-1H-pyrrolo[2,3-b]pyridine-3-carboxamide] |  | < 100 | 100 to 1000 | < 100 |  |
| Cc1cc(N)nc(C)c1CNC(=O)c1nn(Cc2ccc3ncc(Cl)cc3c2)c2ccccc12 [Example 13, N-((6-amino-2,4-dimethylpyridin-3-yl)methyl)-1-((3-chloroquinolin-6-yl)methyl)-1H-indazole-3-carboxamide] |  | < 100 | 100 to 1000 | < 100 |  |
| Cc1cc(N)nc(C)c1CNC(=O)c1cn(Cc2ccc3ncc(Cl)cc3c2)nc1C(F)(F)F [Example 15, N-((6-amino-2,4-dimethylpyridin-3-yl)methyl)-1-((3-chloroquinolin-6-yl)methyl)-3-(trifluoromethyl)-1H-pyrazole-4-carboxamide] | < 100 | < 100 | 1000 to 10000 |  |  |
| Cc1cc(N)nc(C)c1CNC(=O)c1cn(Cc2ccc3ncc(Cl)cc3c2)c2cnccc12 [Example 16, N-((6-amino-2,4-dimethylpyridin-3-yl)methyl)-1-((3-chloroquinolin-6-yl)methyl)-1H-pyrrolo[2,3-c]pyridine-3-carboxamide] |  | < 100 | 100 to 1000 | < 100 |  |
| Cc1cc(N)nc(C)c1CNC(=O)c1cn(Cc2ccc3ncc(Cl)cc3c2)nc1N [Example 17, 3-amino-N-((6-amino-2,4-dimethylpyridin-3-yl)methyl)-1-((3-chloroquinolin-6-yl)methyl)-1H-pyrazole-4-carboxamide] | < 100 | < 100 | 100 to 1000 |  |  |
| CC(=O)Nc1cn(Cc2ccc3ncc(Cl)cc3c2)nc1C(=O)NCc1c(C)cc(N)nc1C [Example 19, 4-acetamido-N-((6-amino-2,4-dimethylpyridin-3-yl)methyl)-1-((3-chloroquinolin-6-yl)methyl)-1H-pyrazole-3-carboxamide] | < 100 | < 100 | 100 to 1000 |  |  |
| Cc1cc(N)nc(C)c1CNC(=O)c1nc(N)n(Cc2ccc3ncc(Cl)cc3c2)n1 [Example 20, 5-amino-N-((6-amino-2,4-dimethylpyridin-3-yl)methyl)-1-((3-chloroquinolin-6-yl)methyl)-1H-1,2,4-triazole-3-carboxamide] | < 100 | < 100 | < 100 |  |  |
| Cc1cc(N)nc(C)c1CNC(=O)c1cnn(Cc2ccc3ncc(Cl)cc3c2)n1 [Example 21, N-((6-amino-2,4-dimethylpyridin-3-yl)methyl)-2-((3-chloroquinolin-6-yl)methyl)-2H-1,2,3-triazole-4-carboxamide] | < 100 | < 100 | 1000 to 10000 |  |  |
| Cc1cc(N)nc(C)c1CNC(=O)c1nn(Cc2ccc3ncc(Cl)cc3c2)cc1C(F)(F)F [Example 22, N-((6-amino-2,4-dimethylpyridin-3-yl)methyl)-1-((3-chloroquinolin-6-yl)methyl)-4-(trifluoromethyl)-1H-pyrazole-3-carboxamide] | < 100 | < 100 | 100 to 1000 |  |  |
| Cc1cc(N)nc(C)c1CNC(=O)c1cn(Cc2ccc3ncc(Cl)cc3c2)nc1CN [Example 27, N-((6-amino-2,4-dimethylpyridin-3-yl)methyl)-3-(aminomethyl)-1-((3-chloroquinolin-6-yl)methyl)-1H-pyrazole-4-carboxamide] | < 100 | < 100 | < 100 |  |  |
| Cc1cc(N)nc(C)c1CNC(=O)c1cn(Cc2ccc3ncc(Cl)cc3c2)c(N)n1 [Example 28, 2-amino-N-((6-amino-2,4-dimethylpyridin-3-yl)methyl)-1-((3-chloroquinolin-6-yl)methyl)-1H-imidazole-4-carboxamide] | < 100 | < 100 | < 100 |  |  |
| Cc1cc(N)nc(C)c1CNC(=O)c1coc(Cc2ccc3ncc(Cl)cc3c2)n1 [Example 29, N-((6-amino-2,4-dimethylpyridin-3-yl)methyl)-2-((3-chloroquinolin-6-yl)methyl)oxazole-4-carboxamide] | < 100 | < 100 | 1000 to 10000 |  |  |
| Cc1cc(N)nc(C)c1CNC(=O)c1nnc(Cc2ccc3ncc(Cl)cc3c2)o1 [Example 30, N-((6-amino-2,4-dimethylpyridin-3-yl)methyl)-5-((3-chloroquinolin-6-yl)methyl)-1,3,4-oxadiazole-2-carboxamide] | < 100 | < 100 | 1000 to 10000 |  |  |
| Cc1cc(N)nc(C)c1CNC(=O)c1ncc(Cc2ccc3ncc(Cl)cc3c2)o1 [Example 31, N-((6-amino-2,4-dimethylpyridin-3-yl)methyl)-5-((3-chloroquinolin-6-yl)methyl)oxazole-2-carboxamide] | < 100 | < 100 | 1000 to 10000 |  |  |
| Cc1cc(N)nc(C)c1CNC(=O)c1cn(Cc2ccc3ncc(Cl)cc3c2)c2ncncc12 [Example 32, N-((6-amino-2,4-dimethylpyridin-3-yl)methyl)-7-((3-chloroquinolin-6-yl)methyl)-7H-pyrrolo[2,3-d]pyrimidine-5-carboxamide] |  | < 100 | < 100 | < 100 |  |
| Cc1cc(N)nc(C)c1CNC(=O)c1cn(Cc2ccc3ncc(Cl)cc3c2)c2ccncc12 [Example 35, N-((6-amino-2,4-dimethylpyridin-3-yl)methyl)-1-((3-chloroquinolin-6-yl)methyl)-1H-pyrrolo[3,2-c]pyridine-3-carboxamide] |  | < 100 |  | < 100 | BLQ |
| Cc1cc(N)nc(C)c1CNC(=O)c1nn(Cc2ccc3ncc(Cl)cc3c2)cc1C#N [Example 36, N-((6-amino-2,4-dimethylpyridin-3-yl)methyl)-1-((3-chloroquinolin-6-yl)methyl)-4-cyano-1H-pyrazole-3-carboxamide] | < 100 | < 100 | 100 to 1000 |  |  |
| Cc1cc(N)nc(C)c1CNC(=O)c1oc(Cc2ccc3ncc(Cl)cc3c2)nc1C(F)(F)F [Example 37, N-((6-amino-2,4-dimethylpyridin-3-yl)methyl)-2-((3-chloroquinolin-6-yl)methyl)-4-(trifluoromethyl)oxazole-5-carboxamide] | < 100 | < 100 | 100 to 1000 |  |  |
| Cc1cc(N)nc(C)c1CNC(=O)c1cn(Cc2ccc3ncc(Cl)cc3c2)nc1C [Example 38, N-((6-amino-2,4-dimethylpyridin-3-yl)methyl)-1-((3-chloroquinolin-6-yl)methyl)-3-methyl-1H-pyrazole-4-carboxamide] | < 100 | < 100 | 1000 to 10000 |  |  |
| COc1nn(Cc2ccc3ncc(Cl)cc3c2)cc1C(=O)NCc1c(C)cc(N)nc1C [Example 39, N-((6-amino-2,4-dimethylpyridin-3-yl)methyl)-1-((3-chloroquinolin-6-yl)methyl)-3-methoxy-1H-pyrazole-4-carboxamide] | < 100 | < 100 | 1000 to 10000 |  |  |
| Cc1cc(N)nc(C)c1CNC(=O)c1cn(Cc2cc(F)c3ncc(Cl)cc3c2)nc1C#N [Example 52, N-((6-amino-2,4-dimethylpyridin-3-yl)methyl)-1-((3-chloro-8-fluoroquinolin-6-yl)methyl)-3-cyano-1H-pyrazole-4-carboxamide] | < 100 | < 100 | 100 to 1000 |  |  |
